{
  "source": "patent US10070660B2",
  "about": "“Pet food palatability with antimicrobial properties based on organic acids” (KEMIN INDUSTRIES, INC., priority 2012, dated 2018)",
  "key": {"[1]": {"assay": "pH of fumaric acid-TSB solutions", "type": "physicochemical", "protocol": "A 0.20% stock solution of fumaric acid was made by dissolving 0.100 g (w/v) fumaric acid in 50 ml sterile deionized water in a flask. The 0.20% stock was diluted 1:2 in sterile deionized water to obtain a 0.10% fumaric acid solution, which was then diluted 1:2 to obtain a 0.05% fumaric acid solution. Each fumaric acid stock solution (0.20%, 0.10% and 0.05%) was further diluted 1:2 in TSB (pH 4.9) to yield fumaric acid-TSB solutions of 0.100%, 0.050% and 0.025%. The pH of each fumaric-TSB solution was measured (Table 1). One hundred μl of each fumaric-TSB solution was added to triplicate wells containing 100 μl standardized inoculum. One hundred μl of untreated (0% fumaric) TSB (pH 4.9) was added to triplicate wells containing 100 μl standardized inoculum as a control. The microplate was placed in a Versamax Microplate Reader (Molecular Devices) (37° C.) with wavelength set to 600 nm. The optical density (OD600) was read every 2 hours for 48 hours."}, "[2]": {"assay": "pH of 5% (w/v) solution of cat palatant formulated with fumaric acid", "type": "physicochemical", "protocol": "Preparation of palatant samples. Four samples of a cat palatant formulated with varying levels of fumaric acid (Table 6) were aseptically weighed in duplicate sterile 50 ml conical test tubes. To each test tube, 10 ml of sterile deionized water was added and mixed by vortex. The pH of a 5% (w/v) solution of each palatant was also measured (Table 6)."}, "cats": {"test_system": "cats", "assay": "Cat palatability, two-pan method (intake ratio)", "type": "in vivo", "conditions": "for IR-A: Ration B incumbent; for IR: vs name brand cat food"}, "[3]": {"test_system": "Salmonella (five Salmonella enterica serovars)", "assay": "Cat kibble challenge with dried five strain Salmonella cocktail inoculum", "type": "cell-based", "protocol": "One ml of each Salmonella culture was separately inoculated into a beaker containing tempered (ambient), sterilized MBM which was then incubated at 37° C. for 48 hours. Inoculated MBM was dispensed (approx. 200 g) into sterile 250 ml centrifuge bottles and centrifuged at 5,000 rpm for 10 minutes. The supernatant was decanted and autoclaved for disposal. The pellets were suspended in 10 ml TSB-20% glycerol. Suspensions (approximately 150-160 g) were transferred to sterilized 250 ml polycarbonate straight side wide mouth jars with lids (Nalgene, Thermo Scientific). Jars containing MBM-Salmonella suspensions were immediately frozen at −70° C. for 1 hour. Frozen MBM-Salmonella suspensions were lyophilized using a FreeZone-1 Liter benchtop freeze dry system (Labconco) (approx. 96 hours, −50° C.). Each lyophilized Salmonella culture was pulverized to a fine powder using a sterile mortar and pestle. Twenty g of each of the five lyophilized Salmonella cultures was combined in a sterile wide mouth glass jar to make the dried Salmonella cocktail inoculum. […] Solidified plates were incubated inverted at 37° C. for 16-18 hours. Visible colonies were counted and colony forming units per gram were calculated (CFU/g). […] Kibble and inoculum were mixed together for five minutes by hand in a plastic zip top bag, and allowed to rest for 1 hour prior to sampling. Coated, un-inoculated kibble was also included in the study and tested for Salmonella (direct plating and FDA BAM), total aerobic bacteria, mold and yeast counts, pH, percent moisture, and water activity. For each analysis time point challenged kibble was sampled in triplicate. Kibbles were stored at ambient temperature.\nChallenged kibble samples bags were mixed thoroughly, then 5.00 g (±0.01) was aseptically weighed into a sterile plastic bag and diluted with 45 ml sterile Phosphate Buffer (Butterfield) diluent (BPB) containing (g/l) KH2PO4 34.0, pH adjusted to 7.2 with 1N sodium hydroxide and homogenized using a Stomacher (Seward Stomacher 80) for 1 minute and serially diluted in BPB for plating. The plates are poured with tempered (45° C.) XLD agar. After solidification, plates were inverted and placed in an incubator (37° C.). Colonies were counted and CFU/g was calculated. The counts for each triplicate sample were averaged and expressed as log CFU/g. Those samples of which were below the detection limit of <10 CFU/g were assigned 0 log CFU/g for the purpose of statistical analysis. Analysis of Variance using the LSD separation of means method was performed to analyze the data using StatGraphics software (StatPoint Technologies, Inc. Warrenton, Va.).\nAll procedures for the Phase 3 kibble challenge were conducted as described for Phase 2."}, "[4]": {"test_system": "Salmonella enterica subsp. enterica (ATCC 51741)", "assay": "Microplate assay, inhibition of S. enterica growth in modified TSB (OD600 over 48 h)", "type": "cell-based", "conditions": "microtiter plate, 0.025-0.100% in TSB, 37 C", "protocol": "FIG. 1 is a chart of the effect of fumaric acid (0%; 0.025%; 0.050%; 0.100%) on the growth of Salmonella enterica ser. Infantis in modified tryptic soy broth (pH 4.93) for 48 hours at 37° C.\nSalmonella enterica subsp. enterica (ATCC® 51741™), was obtained from the American Type Culture Collection (ATCC®) and kept as a frozen stock at −70° C. in Bacto™ Tryptic Soy Broth (TSB) with 20% (w/v) glycerol. One vial of the frozen stock culture was thawed at room temperature and 0.100 mL was transferred to 100 mL TSB (pH 7.2) containing (g/l) pancreatic digest of casein: 17, enzymatic digest of soybean meal: 3, sodium chloride, 5, dipotassium phosphate: 2.5, dextrose, 2.5, then incubated at 37° C. for 24 hours on a platform shaker set at 190 rpm. […]\nA 0.20% stock solution of fumaric acid was made by dissolving 0.100 g (w/v) fumaric acid in 50 ml sterile deionized water in a flask. […] The pH of each fumaric-TSB solution was measured (Table 1). […] The microplate was placed in a Versamax Microplate Reader (Molecular Devices) (37° C.) with wavelength set to 600 nm. The optical density (OD600) was read every 2 hours for 48 hours.\nSolutions of fumaric acid at three different concentrations (Table 3) were evaluated for inhibition of S. enterica growth in vitro using a microplate assay and measuring optical density over time (FIG. 1)."}},
  "note": "“Also recorded” adds a separate entry of the source.",
  "data": [
    {"smiles": "O=C(O)/C=C/C(=O)O", "note": "[Fumaric Acid, fumaric acid]", "values": [
      {"measurement": "pH in TSB", "setting": "[1]; 0.025% fumaric acid", "result": 4.67},
      {"measurement": "pH in TSB", "setting": "[1]; 0.050% fumaric acid", "result": 4.42},
      {"measurement": "pH in TSB", "setting": "[1]; 0.100% fumaric acid", "result": 4.06},
      {"measurement": "pH", "setting": "[2]; cat palatant with 14% fumaric acid in formula", "result": 3.15},
      {"measurement": "pH", "setting": "[2]; cat palatant with 20% fumaric acid in formula", "result": 3.01},
      {"measurement": "pH", "setting": "[2]; cat palatant with 27% fumaric acid in formula", "result": 2.93},
      {"measurement": "IR-A", "setting": "cats; Confirmation trials, Prototype 89-87, 0.25% acid on kibble (so in the source)", "result": "0.65 (p ≤ 0.05)"},
      {"measurement": "palatability (in words)", "setting": "cats; Example 4 cat trials, formula 89-87 or 89-145 vs incumbent dry palatant", "result": "parity palatability score; also recorded: scores improved"},
      {"measurement": "IR-A", "setting": "cats; First set, Prototype 89-87 at 2.5%, 0.5% total acid on kibble", "result": "0.46 (N.S.)"},
      {"measurement": "IR", "setting": "cats; Trial 412 (so in the source), 20% fumaric acid in formula (80 mesh), 0.30% on kibble", "result": 0.77},
      {"measurement": "IR", "setting": "cats; Trial 426, 14% fumaric acid in formula (30 mesh sieve), 0.21% on kibble", "result": 0.57},
      {"measurement": "IR", "setting": "cats; Trial 465, 14% fumaric acid in formula (80 mesh sieve), 0.21% on kibble", "result": 0.62},
      {"measurement": "IR", "setting": "cats; Trial 481, 27% fumaric acid in formula (80 mesh), ~0.41% on kibble", "result": 0.74},
      {"measurement": "Salmonella", "setting": "[3]; Table 4, 0.21% on cat kibble, day 0", "result": "2.79 ± 0.35^Aa log CFU/g"},
      {"measurement": "Salmonella", "setting": "[3]; Table 4, 0.21% on cat kibble, day 1", "result": "2.85 ± 0.07^Aa log CFU/g"},
      {"measurement": "Salmonella", "setting": "[3]; Table 4, 0.21% on cat kibble, day 8", "result": "2.02 ± 0.13^Bab log CFU/g"},
      {"measurement": "Salmonella", "setting": "[3]; Table 4, 0.21% on cat kibble, day 14", "result": "1.44 ± 0.24^Bbc log CFU/g"},
      {"measurement": "Salmonella", "setting": "[3]; Table 4, 0.21% on cat kibble, day 22", "result": "0.77 ± 0.39^Bc log CFU/g"},
      {"measurement": "Salmonella", "setting": "[3]; Table 5, 0.30% on cat kibble, day 0", "result": "2.44 ± 0.21^Aa log CFU/g"},
      {"measurement": "Salmonella", "setting": "[3]; Table 5, 0.30% on cat kibble, day 1", "result": "1.26 ± 0.14^Bab log CFU/g"},
      {"measurement": "Salmonella", "setting": "[3]; Table 5, 0.30% on cat kibble, day 5", "result": "0.57 ± 0.57^Bb log CFU/g"},
      {"measurement": "Salmonella", "setting": "[3]; Table 5, 0.41% on cat kibble, day 0", "result": "1.46 ± 0.09^Ba log CFU/g"},
      {"measurement": "Salmonella", "setting": "[3]; Table 5, 0.41% on cat kibble, day 1, below detection limit assigned 0", "result": "0.0 ± 0.0^Cb* log CFU/g"},
      {"measurement": "Salmonella", "setting": "[3]; Table 5, 0.41% on cat kibble, day 5, below detection limit assigned 0", "result": "0.0 ± 0.0^Bb* log CFU/g"},
      {"measurement": "Salmonella", "setting": "[3]; Table 12, 0.50% total acid on cat kibble, day 0", "result": "3.38 ± 0.02^Ba log CFU/g"},
      {"measurement": "Salmonella", "setting": "[3]; Table 12, 0.50% total acid on cat kibble, day 1", "result": "1.98 ± 0.02^Bb log CFU/g"},
      {"measurement": "Salmonella", "setting": "[3]; Table 12, 0.50% total acid on cat kibble, day 5", "result": "1.10 ± 0.10^Bc log CFU/g"},
      {"measurement": "Salmonella", "setting": "[3]; Table 12, 0.50% total acid on cat kibble, day 7", "result": "0.33 ± 0.33^Bd log CFU/g"},
      {"measurement": "Salmonella", "setting": "[3]; Table 12, 0.50% total acid on cat kibble, day 14", "result": "0.33 ± 0.33^Bd log CFU/g"},
      {"measurement": "Salmonella", "setting": "[3]; Table 12, 0.50% total acid on cat kibble, day 21", "result": "0.00 ± 0.00^Bd log CFU/g"},
      {"measurement": "Salmonella counts on challenged cat kibble vs control palatant (in words)", "setting": "[3]; cat kibble challenge", "result": "significant efficacy against Salmonella spp; also recorded: significantly lower Salmonella counts; also recorded: demonstrated antimicrobial activity; also recorded: significant reduction in Salmonella count; also recorded: dose response"},
      {"measurement": "Salmonella counts", "setting": "[3]; highest level of fumaric acid on cat kibble, after 1 day, detection limit", "result": "< 10", "unit": "CFU/g"},
      {"measurement": "inhibition of S. enterica growth in vitro (in words)", "setting": "[4]", "result": "effective antimicrobial agent"}
    ]}
  ]
}
